Reference: patent US20230085307A1, “PYRIDAZINONE COMPOUND AND HERBICIDE” (NISSAN CHEMICAL CORPORATION, priority 2019, published 2023)

Experiments:
southern crabgrass [1] = assay: Test Example 4: herbicidal effect by soil treatment (Table 19, symbol F); assay type: in vivo, southern crabgrass (Digitaria ciliaris); details: AAH 320 g/ha
Procedure, shortened: (§1)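 Applied as a water-diluted emulsion, the compound was sprayed onto soil covering newly sown seeds. Evaluation came three weeks after application, in a greenhouse held at 25° C. to 30° C.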

green foxtail [2] = assay: Test Example 4: herbicidal effect by soil treatment (Table 19, symbol G); assay type: in vivo, green foxtail (Setaria viridis); details: AAH 320 g/ha
Procedure, shortened: as §1

barnyard grass [3] = assay: Test Example 4: herbicidal effect by soil treatment (Table 19, symbol H); assay type: in vivo, barnyard grass (Echinochloa crus-galli); details: AAH 320 g/ha
Procedure, shortened: as §1

wild oat [4] = assay: Test Example 4: herbicidal effect by soil treatment (Table 19, symbol I); assay type: in vivo, wild oat (Avena fatua); details: AAH 320 g/ha
Procedure, shortened: as §1

blackgrass [5] = assay: Test Example 4: herbicidal effect by soil treatment (Table 19, symbol J); assay type: in vivo, blackgrass (Alopecurus myosuroides); details: AAH 320 g/ha
Procedure, shortened: as §1

Italian ryegrass [6] = assay: Test Example 4: herbicidal effect by soil treatment (Table 19, symbol K); assay type: in vivo, Italian ryegrass (Lolium multiflorum); details: AAH 320 g/ha
Procedure, shortened: as §1

windgrass [7] = assay: Test Example 4: herbicidal effect by soil treatment (Table 19, symbol L); assay type: in vivo, windgrass (Apera spica-venti); details: AAH 320 g/ha
Procedure, shortened: as §1

velvetleaf [8] = assay: Test Example 4: herbicidal effect by soil treatment (Table 19, symbol M); assay type: in vivo, velvetleaf (Abutilon theophrasti); details: AAH 320 g/ha
Procedure, shortened: as §1

redroot pigweed [9] = assay: Test Example 4: herbicidal effect by soil treatment (Table 19, symbol N); assay type: in vivo, redroot pigweed (Amaranthus retroflexus); details: AAH 320 g/ha
Procedure, shortened: as §1

lambsquarters [10] = assay: Test Example 4: herbicidal effect by soil treatment (Table 19, symbol O); assay type: in vivo, lambsquarters (Chenopodium album); details: AAH 320 g/ha
Procedure, shortened: as §1

chickweed [11] = assay: Test Example 4: herbicidal effect by soil treatment (Table 19, symbol P); assay type: in vivo, common chickweed (Stellaria media); details: AAH 320 g/ha
Procedure, shortened: as §1

persian speedwell [12] = assay: Test Example 4: herbicidal effect by soil treatment (Table 19, symbol R); assay type: in vivo, Persian speedwell (Veronica persica); details: AAH 320 g/ha
Procedure, shortened: as §1

southern crabgrass [13] = assay: Test Example 5: herbicidal effect by foliage application, plastic box (Table 20, symbol F); assay type: in vivo, southern crabgrass (Digitaria ciliaris); details: foliage application, AAH 320 g/ha, three weeks after application
Procedure, shortened: (§2)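 Sow seeds spot-wise in sterilized diluvial soil; cover with ~1.5 cm soil. Grow 14 days in greenhouse, 25° C. to 30° C. Spray foliage with emulsion diluted to predetermined amount. Rate effect after 3 weeks.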

green foxtail [14] = assay: Test Example 5: herbicidal effect by foliage application, plastic box (Table 20, symbol G); assay type: in vivo, green foxtail (Setaria viridis); details: foliage application, AAH 320 g/ha, three weeks after application
Procedure, shortened: as §2

barnyard grass [15] = assay: Test Example 5: herbicidal effect by foliage application, plastic box (Table 20, symbol H); assay type: in vivo, barnyard grass (Echinochloa crus-galli); details: foliage application, AAH 320 g/ha, three weeks after application
Procedure, shortened: as §2

wild oat [16] = assay: Test Example 5: herbicidal effect by foliage application, plastic box (Table 20, symbol I); assay type: in vivo, wild oat (Avena fatua); details: foliage application, AAH 320 g/ha, three weeks after application
Procedure, shortened: as §2

blackgrass [17] = assay: Test Example 5: herbicidal effect by foliage application, plastic box (Table 20, symbol J); assay type: in vivo, blackgrass (Alopecurus myosuroides); details: foliage application, AAH 320 g/ha, three weeks after application
Procedure, shortened: as §2

Italian ryegrass [18] = assay: Test Example 5: herbicidal effect by foliage application, plastic box (Table 20, symbol K); assay type: in vivo, Italian ryegrass (Lolium multiflorum); details: foliage application, AAH 320 g/ha, three weeks after application
Procedure, shortened: as §2

windgrass [19] = assay: Test Example 5: herbicidal effect by foliage application, plastic box (Table 20, symbol L); assay type: in vivo, windgrass (Apera spica-venti); details: foliage application, AAH 320 g/ha, three weeks after application
Procedure, shortened: as §2

velvetleaf [20] = assay: Test Example 5: herbicidal effect by foliage application, plastic box (Table 20, symbol M); assay type: in vivo, velvetleaf (Abutilon theophrasti); details: foliage application, AAH 320 g/ha, three weeks after application
Procedure, shortened: as §2

redroot pigweed [21] = assay: Test Example 5: herbicidal effect by foliage application, plastic box (Table 20, symbol N); assay type: in vivo, redroot pigweed (Amaranthus retroflexus); details: foliage application, AAH 320 g/ha, three weeks after application
Procedure, shortened: as §2

lambsquarters [22] = assay: Test Example 5: herbicidal effect by foliage application, plastic box (Table 20, symbol O); assay type: in vivo, lambsquarters (Chenopodium album); details: foliage application, AAH 320 g/ha, three weeks after application
Procedure, shortened: as §2

chickweed [23] = assay: Test Example 5: herbicidal effect by foliage application, plastic box (Table 20, symbol P); assay type: in vivo, common chickweed (Stellaria media); details: foliage application, AAH 320 g/ha, three weeks after application
Procedure, shortened: as §2

persian speedwell [24] = assay: Test Example 5: herbicidal effect by foliage application, plastic box (Table 20, symbol R); assay type: in vivo, Persian speedwell (Veronica persica); details: foliage application, AAH 320 g/ha, three weeks after application
Procedure, shortened: as §2

SMILES: Cc1nn(C)c(=O)c(-c2c(-c3ccc(OS(=O)(=O)C(F)(F)F)cc3)sc3ccccc23)c1O [1-147]
- F: southern crabgrass, herbicidal effect rating (southern crabgrass [1]): 0 (Herbicidal rate of 5% or less (almost no effect))
- G: green foxtail, herbicidal effect rating (green foxtail [2]): 0 (Herbicidal rate of 5% or less (almost no effect))
- H: barnyard grass, herbicidal effect rating (barnyard grass [3]): 0 (Herbicidal rate of 5% or less (almost no effect))
- I: wild oat, herbicidal effect rating (wild oat [4]): 0 (Herbicidal rate of 5% or less (almost no effect))
- J: blackgrass, herbicidal effect rating (blackgrass [5]): 0 (Herbicidal rate of 5% or less (almost no effect))
- K: Italian ryegrass, herbicidal effect rating (Italian ryegrass [6]): 0 (Herbicidal rate of 5% or less (almost no effect))
- L: windgrass, herbicidal effect rating (windgrass [7]): 0 (Herbicidal rate of 5% or less (almost no effect))
- M: velvetleaf, herbicidal effect rating (velvetleaf [8]): 0 (Herbicidal rate of 5% or less (almost no effect))
- N: redroot pigweed, herbicidal effect rating (redroot pigweed [9]): 2 (Herbicidal rate of 20% or more and less than 40%)
- O: lambsquarters, herbicidal effect rating (lambsquarters [10]): 3 (Herbicidal rate of 40% or more and less than 70%)
- P: chickweed, herbicidal effect rating (chickweed [11]): 5 (Herbicidal rate of 90% or more (almost completely withered))
- R: persian speedwell, herbicidal effect rating (persian speedwell [12]): 5 (Herbicidal rate of 90% or more (almost completely withered))
- F: southern crabgrass, herbicidal effect (southern crabgrass [13]): 0 (Herbicidal rate of 5% or less (almost no effect))
- G: green foxtail, herbicidal effect (green foxtail [14]): 0 (Herbicidal rate of 5% or less (almost no effect))
- H: barnyard grass, herbicidal effect (barnyard grass [15]): 0 (Herbicidal rate of 5% or less (almost no effect))
- I: wild oat, herbicidal effect (wild oat [16]): 0 (Herbicidal rate of 5% or less (almost no effect))
- J: blackgrass, herbicidal effect (blackgrass [17]): 0 (Herbicidal rate of 5% or less (almost no effect))
- K: Italian ryegrass, herbicidal effect (Italian ryegrass [18]): 0 (Herbicidal rate of 5% or less (almost no effect))
- L: windgrass, herbicidal effect (windgrass [19]): 0 (Herbicidal rate of 5% or less (almost no effect))
- M: velvetleaf, herbicidal effect (velvetleaf [20]): 1 (Herbicidal rate of 5% or more and less than 20%)
- N: redroot pigweed, herbicidal effect (redroot pigweed [21]): 0 (Herbicidal rate of 5% or less (almost no effect))
- O: lambsquarters, herbicidal effect (lambsquarters [22]): 2 (Herbicidal rate of 20% or more and less than 40%)
- P: chickweed, herbicidal effect (chickweed [23]): 5 (Herbicidal rate of 90% or more (almost completely withered))
- R: persian speedwell, herbicidal effect (persian speedwell [24]): 5 (Herbicidal rate of 90% or more (almost completely withered))
